What was measured:
recombinant CD81-LEL = biological target: T1, recombinant CD81-LEL (Homo sapiens, UniProt P60033); assay: Dual polarization interferometry (DPI) binding of ligands to immobilized recombinant CD81-LEL; settings: for DPI Response (Radians), ligand added to CD81 protein: Table B and b111; for DPI Response (Radians), ligand added to CD81 protein / DPI Radians: ligand 500 μM in PBS, 2.5% DMSO; for DPI Radians: Table A
T1 construct: the large extracellular loop of CD81 (CD81-LEL); GST; His; Shoshana Levy Lab, Stanford (gift)
T1 sequence (P60033 113-201 limits assumed): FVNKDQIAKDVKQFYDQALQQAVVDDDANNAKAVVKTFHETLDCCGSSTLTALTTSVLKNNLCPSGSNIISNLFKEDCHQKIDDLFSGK
Experimental: DPI analyses were performed using an AnaLight 4D workstation (Farfield Group, Manchester UK). The recombinant CD81-LEL was immobilized onto a Thiol AnaChip using Sulfo-GMBS as a cross-linker in PBS running buffer. Non-specific sites were blocked with digested casein. TRIS was used to cap the cross-linker, blocking any additional amines from covalently binding to the cross-linker on the chip surface. Ligands were prepared as a 20 mM stock solutions in DMSO. Each ligand was diluted to a final concentration of 500 μM in PBS just prior to injection (final DMSO concentration was 2.5%). PBS and DMSO mixed in the same ratio were used as a blank. Data collection and analysis were performed using the AnaLight Resolver.
Six of the more interesting ligand candidates being considered for use in creating a ligand conjugate (three calculated to bind to Site 1 and three calculated to bind to Site 2) were further tested to confirm binding using a second experimental technique, dual polarization interferometry. The results, shown in FIG. 6, confirmed that all six ligands bound to the protein. The relative rank in strength of binding of the Site 1 and 2 ligands, as determined by DPI, were also similar to the ranking obtained by SPR or calculated by AutoDock for the majority of the ligands. […] One reason for this observed difference in the DPI response may relate to conformational changes in the protein that occur when the small molecules bind. The change in radians measured using DPI when a ligand binds to a protein is known to result from a combination of two effects: 1) the resulting increase in mass/volume when the ligand binds to the protein on the surface of the chip and 2) a conformational change in the protein induced by the binding of the ligand. Molecules binding in the deeper cavity would be expected to have more and stronger contacts with the protein than ligands sitting exposed to solvent in shallow cavities or surface binding sites. […]

[1] = biological target: T2, recombinant CD81-LEL (GST tag) (Homo sapiens, UniProt P60033); assay: Surface plasmon resonance (Biacore T200) binding of ligands to immobilized recombinant CD81-LEL; settings: Table A; ligand 600 μM in PBS-0.05% Tween-80; CD81-LEL-GST on CM5 chip
T2 construct: the large extracellular loop of CD81 (CD81-LEL); gift of Dr. Shoshana Levy, Stanford University
T2 sequence (P60033 113-201 limits assumed): T1 sequence (P60033 113-201 limits assumed)
Experimental: SPR analysis was performed using a Biacore T200 workstation (GE Healthcare, NJ, USA). A recombinant form of the CD81-LEL protein with a GST tag (generously provided by Dr. Shoshana Levy, Stanford University) was used to confirm, using an established experimental technique, the binding of several ligands to the protein. Briefly, 10 μM CD81-LEL-GST diluted into 10 mM Na-Acetate buffer pH 4.5 was immobilized for 15 min at a flow speed of 5 μl/min onto a CM5 sensor chip using amine-coupling (EDC-NHS). Approximately 20,000 RU of protein were immobilized on the chip. The ligands were prepared as 600 μM solutions in PBS-0.05% Tween-80 (the running buffer) and they were introduced to the protein using a pre-programmed 3 minute association and 1 minute dissociation interval.
The binding affinity of the most tightly bound ligand in the group selected for ligand conjugate design (Ligand 1) was estimated using data collected from a series of SPR binding experiments conducted at different ligand concentrations. To obtain the kinetic and affinity data needed to estimate the Kd, the original ligand was diluted serially with running buffer to produce seven different ligand concentrations: 1024 μM, […], 256 μM, 128 μM, 64 μM, 32 μM and 0 μM. Data were fitted using a monovalent binding model.
A total of 36 ligands were tested experimentally using surface Plasmon resonance (on a Biacore T200 instrument) to identify which of the molecules calculated to bind to Sites 1 and 2 on CD81 actually bind to a recombinant form of the protein (CD81-LEL). Twenty-six of the molecules provided a positive change in response units (RU) upon introduction to a chip containing the immobilized protein (Table A), indicating the ligands bound to the protein. The measured responses for the ligands that bound varied from 2.3 to 78.4 RU. Those ligands providing the largest responses tended to be molecules that were calculated to bind more deeply inside cavities in Site 1 (ligands 30930, 98026, 7436, 5069), Site 2 (ligands 127947, 38743) or Site 4 (ligands 78623, 16631).
Experimental analysis of ligand binding to recombinant CD81 LEL. Forty ligands calculated by AutoDock to bind to sites 1 and 2 on CD81-LEL were tested experimentally using surface Plasmon resonance as described in the Materials and Methods section. Ligand code numbers are those assigned by the National Cancer Institute. […] Because the binding experiments were performed by passing the same concentration of each ligand sequentially across the same protein coated chip using both techniques, the magnitude of the responses can be used to provide an approximate ranking of binding strength.

[2] = biological target: T3, native CD81 on Raji cells (Homo sapiens, UniProt P60033); assay: Competition assay: inhibition of FITC-labeled JS-81 anti-CD81 antibody binding to native CD81 on live Raji cells (flow cytometry); type: cell-based
T3 construct: endogenous in cells; host or cells: Raji (human B cell line)
T3 sequence (P60033 1-236): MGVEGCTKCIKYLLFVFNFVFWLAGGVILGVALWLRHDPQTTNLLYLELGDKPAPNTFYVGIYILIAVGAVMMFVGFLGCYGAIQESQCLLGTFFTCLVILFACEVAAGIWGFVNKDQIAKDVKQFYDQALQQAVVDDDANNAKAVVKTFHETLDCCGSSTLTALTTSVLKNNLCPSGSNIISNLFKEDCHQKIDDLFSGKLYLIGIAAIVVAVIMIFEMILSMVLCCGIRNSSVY
Description: A subset of these ligands and some of those listed in the patent have been tested to identify those ligands that bind to the correct region of the CD81 protein and for binding to native CD81 on living cells (a Raji cell line). This assay tests three concentrations of the ligand to determine if the ligand is capable of inhibiting the binding of an antibody called JS-81. This antibody is known to bind to the region of the CD81 protein we have targeted. If the ligand decreases JS-81 binding as you increase the concentration of the ligand, it is 1) binding to native CD81 on the Raji cells and 2) it is binding to the correct region of the protein.
For antibody neutralization assay Raji cells were used, a human B cell line that expressed high amounts of CD81 on the surface (data not shown). Cells were grown in RPMI medium (10% FCS, 1% penicillin/streptomycin, 1% L-glutamine, 1% non-essential amino acids, 1% sodium pyruvate, pH 7.4, at 37° C. with 5% CO2). 2×10^5 cells were incubated with or without different concentrations (50 μM, 100 μM, 400 μM and 1 mM) of indicated inhibitor for 20 min at room temperature, subsequently 1 ul (16 ng/μl) of FITC-labeled anti CD81 antibody (BD Pharmingen, 551108) was added to the cells and incubated for 20 min (antibody titration was performed to obtain a working dilution range, data not shown). Cells were washed and analyzed by flow cytometry using fluorescence-activated cell sorting (FACS) (BD FACSCalibur, software: Cell Quest Pro). Mean Fluorescence Intensity MFI was calculated using Flowjo software (TreesStar, www.flowjo.com).

Molecule: O=C(OCc1ccccc1)c1ccccc1O [Benzyl salicylate, reference compound]
- DPI Response (Radians), ligand added to CD81 protein (recombinant CD81-LEL): 0.5818 Radians
- DPI Response (Radians), ligand added to CD81 protein (recombinant CD81-LEL; listed as benzyl salicylate): 0.58 Radians

Molecule: O=C(O)CC1OCC=C2CN3CCC45C6=CC(=O)C(=O)C([N+](=O)[O-])=C6NC4C1C2CC35 (centres unmarked) [Ligand 5069]
- SPR Response Units [1]: 67.5 RU

Molecule: CC(C)(C)c1ccc(NS(=O)(=O)c2ccc(N)cc2)cc1 [Ligand 7436]
- Inhibition of JS-81 Binding (%) ([2]; 50 μM ligand): 0%
- Inhibition of JS-81 Binding (%) ([2]; 100 μM ligand): 12%
- Inhibition of JS-81 Binding (%) ([2]; 400 μM ligand): 11%
- SPR Response Units [1]: 78.4 RU

Molecule: O=C(O)CSc1nc2ccccc2s1 [Ligand 11891]
- SPR Response Units [1]: 15.2 RU

Molecule: O=C(O)c1ccc(O)c(O)c1 [Ligand 16631]
- SPR Response Units [1]: 61.8 RU

Molecule: O=C(O)/C=C\c1cc2c(cc1[N+](=O)[O-])OCO2 [Ligand 21034]
- SPR Response Units [1]: 21.1 RU

Molecule: CC(C)OC1CCCC(O)C1CC(=O)O (centres unmarked) [Ligand 25368]
- SPR Response Units [1]: 13.3 RU

Molecule: O=C(O)Cn1cnc2c(=S)nc[nH]c21 [Ligand 36914]
- DPI Radians (recombinant CD81-LEL): 0.1448 Radians

Molecule: O=C(O)CCC1(c2ccccc2)NC(=O)NC1=O (centres unmarked) [Ligand 38743]
- DPI Response (Radians), ligand added to CD81 protein (recombinant CD81-LEL): 0.8593 Radians
- SPR Response Units [1]: 30.6 RU

Molecule: O=C(O)c1ccccc1C(=O)Nc1ccccc1[N+](=O)[O-] [Ligand 41066]
- DPI Radians (recombinant CD81-LEL): 0.2700 Radians

Molecule: CC(C)CNC(=O)/C=C\C(=O)O [Ligand 55573]
- SPR Response Units [1]: 10.6 RU

Molecule: O=C(O)CCCCC1SCC2NC(=O)NC21 (centres unmarked) [Ligand 63865]
- SPR Response Units [1]: 58 RU

Molecule: O=C(Nc1ccc(O)c(C(=O)O)c1)Oc1ccccc1 [Ligand 68971]
- SPR Response Units [1]: 12.1 RU

Molecule: N=C(N)N/N=C/c1c(Cl)cccc1Cl [Ligand 68982]
- Inhibition of JS-81 Binding (%) ([2]; 50 μM ligand): 0%
- Inhibition of JS-81 Binding (%) ([2]; 100 μM ligand): 13%
- Inhibition of JS-81 Binding (%) ([2]; 400 μM ligand): 15%
- SPR Response Units [1]: 41.2 RU

Molecule: Nc1nc(O)c(CC(=O)O)s1 [Ligand 70980]
- SPR Response Units [1]: 14.1 RU

Molecule: COc1cc(-c2ccc(Nc3ccccc3C(=O)O)c(OC)c2)ccc1Nc1ccccc1C(=O)O [Ligand 73735]
- Inhibition of JS-81 Binding (%) ([2]; 50 μM ligand): 0%
- Inhibition of JS-81 Binding (%) ([2]; 100 μM ligand): 0%
- Inhibition of JS-81 Binding (%) ([2]; 400 μM ligand): 24%
- SPR Response Units [1]: 1957.8 RU

Molecule: NC(=O)CCC(C(=O)O)N1C(=O)c2ccc(O)cc2C1=O (centres unmarked) [Ligand 78623]
- SPR Response Units [1]: 54.5 RU

Molecule: O=C(O)/C=C\C(=O)Nc1nccs1 [Ligand 80807]
- DPI Radians (recombinant CD81-LEL): 0.1909 Radians

Molecule: Cn1c(=O)c2[nH]c(CNc3ccc(C(=O)O)cc3)nc2n(C)c1=O [Ligand 81750]
- DPI Radians (recombinant CD81-LEL): 0.4360 Radians

Molecule: CC(C)=CCC1=C(OCC(=O)O)C(=O)c2ccccc2C1=O [Ligand 98026]
- DPI Response (Radians), ligand added to CD81 protein (recombinant CD81-LEL): 1.1918 Radians
- Inhibition of JS-81 Binding (%) ([2]; 50 μM ligand): 0%
- Inhibition of JS-81 Binding (%) ([2]; 100 μM ligand): 0%
- Inhibition of JS-81 Binding (%) ([2]; 400 μM ligand): 21%
- SPR Response Units [1]: 50 RU

Molecule: CCCNC1=C(C)C(=O)C2=C(C1=O)C(COC(N)=O)C1(OC)C3NC3CN21 (centres unmarked) [Ligand 123115]
- SPR Response Units [1]: 34.5 RU

Molecule: NC(=S)Nc1cccc(Cl)c1 [Ligand 164965]
- DPI Radians (recombinant CD81-LEL): 0.7494 Radians
- DPI Response (Radians), ligand added to CD81 protein (recombinant CD81-LEL): 0.7494 Radians

Molecule: COc1cc(CCC(=O)O)on1 [Ligand 303800]
- SPR Response Units [1]: 7.8 RU

Molecule: COc1ccccc1/C=C(\C#N)C(=O)O [Ligand 638134]
- SPR Response Units [1]: 25 RU

B1: E2 Protein: HCV E2 envelope glycoprotein that binds CD81 (protein)
chain: QTHITGGSTAHAAAGLANLFSMGPKQDIRLINTNGSWHINRTALNCNESLNTGWVAGLLYYNKFNSSGCSERLASCRPLTDFAQGWGPISYANGSGPDQRPYCWHYPPRPCGIVPAKSVCGPVYCFTPSPVVVGTTDRSGAPTYSWGENETDVFILNNTRPPLGNWFGCTWMNSSGFTKVCGAPPCVIGGVGNNTLRCPTDCFRKHPEATYSRCGSGPWITPRCLVNYPYRLWHYPCTINYTIFKVRMYVGGVEHRLEAACNWTRGERCDLEDRDRSELSPLLLSTTQWQVLPCSFTTLPALSTGLIHLHQNIVDVQYLYGVGSSIASWAIKWDYVVLLFLLLADARVCSCLWMMLLISQAEA
- DPI Binding Response (Radians), molecule added alone to CD81 (recombinant CD81-LEL; Table D, single molecule added to CD81): 4.1402 Radians
